Laboratory results: the CombiSolv-Exp solvation set (Vermeire and Green 2021)

Test: solvent given as SMILES

In the case of `CC(C)CCO`, the “solvation free energy, 298 K” value (in Brc1ccccc1) is reported as -5.27 kcal/mol, the “solvation free energy, 298 K” value (in C1CCOC1) is reported as -6.32 kcal/mol and the “solvation free energy, 298 K” value (in CC#N) is reported as -5.58 kcal/mol. For the same molecule, the “solvation free energy, 298 K” value (in CC(C)O) was -6.51 kcal/mol, the “solvation free energy, 298 K” value (in CCCCCC) was -4.05 kcal/mol and the “solvation free energy, 298 K” value (in CCCCCCC) was -3.96 kcal/mol. For the same molecule, the “solvation free energy, 298 K” value (in CCCCCCCC) was -3.98 kcal/mol, the “solvation free energy, 298 K” value (in CCCCCCCCCCO) was -6.18 kcal/mol and the “solvation free energy, 298 K” value (in CCCCCCCCO) was -6.08 kcal/mol. For the same molecule, the “solvation free energy, 298 K” value (in CCCCOC(C)=O) was -5.78 kcal/mol, the “solvation free energy, 298 K” value (in CO) was -6.77 kcal/mol and the “solvation free energy, 298 K” value (in Cc1ccc(C)cc1) was -4.93 kcal/mol. The “solvation free energy, 298 K” value (in Cc1cccc(C)c1) was -4.93 kcal/mol, the “solvation free energy, 298 K” value (in Cc1ccccc1C) was -4.94 kcal/mol and the “solvation free energy, 298 K” value (in Clc1ccccc1) was -5.13 kcal/mol. The “solvation free energy, 298 K” value (in O) was -4.41 kcal/mol and the “solvation free energy, 298 K” value (in [2H]O[2H]) was -4.43 kcal/mol.

With `c1ccc2c(c1)ccc1ccccc12` the “solvation free energy, 298 K” value (in C1CCOC1) was -11.5 kcal/mol, the “solvation free energy, 298 K” value (in C1COCCO1) was -11.3 kcal/mol and the “solvation free energy, 298 K” value (in CC(=O)N(C)C) was -11.4 kcal/mol. The “solvation free energy, 298 K” value (in CC(C)(C)O) was -9.55 kcal/mol, the “solvation free energy, 298 K” value (in CC(C)=O) was -11.3 kcal/mol and the “solvation free energy, 298 K” value (in CC(C)CC(C)(C)C) was -9.75 kcal/mol. The “solvation free energy, 298 K” value (in CC(C)CC(C)O) was -9.7 kcal/mol, the “solvation free energy, 298 K” value (in CC(C)CCO) was -9.73 kcal/mol and the “solvation free energy, 298 K” value (in CC(C)CO) was -9.56 kcal/mol. For the same molecule, the “solvation free energy, 298 K” value (in CC(C)O) was -9.64 kcal/mol, the “solvation free energy, 298 K” value (in CCC(C)(C)O) was -9.84 kcal/mol and the “solvation free energy, 298 K” value (in CCC(C)O) was -9.64 kcal/mol. The “solvation free energy, 298 K” value (in CCCC(C)CO) was -9.72 kcal/mol, the “solvation free energy, 298 K” value (in CCCC(C)O) was -9.79 kcal/mol and the “solvation free energy, 298 K” value (in CCCCC(CC)CO) was -9.87 kcal/mol. The “solvation free energy, 298 K” value (in CCCCCC) was -10 kcal/mol, the “solvation free energy, 298 K” value (in CCCCCCC) was -10.1 kcal/mol and the “solvation free energy, 298 K” value (in CCCCCCCC) was -10.1 kcal/mol. The “solvation free energy, 298 K” value (in CCCCCCCCC=CCCCCCCCC(=O)OCC(COC(=O)CCCCCCCC=CCCCCCCCC)OC(=O)CCCCCCCC=CCCCCCCCC) was -10.6 kcal/mol, the “solvation free energy, 298 K” value (in CCCCCCCCCC) was -10.1 kcal/mol and the “solvation free energy, 298 K” value (in CCCCCCCCO) was -10.3 kcal/mol. The “solvation free energy, 298 K” value (in CCCCCCCO) was -10.1 kcal/mol, the “solvation free energy, 298 K” value (in CCCCCO) was -10 kcal/mol and the “solvation free energy, 298 K” value (in CCCCO) was -9.89 kcal/mol. The “solvation free energy, 298 K” value (in CCCCOC(C)=O) was -11 kcal/mol, the “solvation free energy, 298 K” value (in CCCCOCCCC) was -10.5 kcal/mol and the “solvation free energy, 298 K” value (in CCCO) was -9.96 kcal/mol. The “solvation free energy, 298 K” value (in CCO) was -10 kcal/mol, the “solvation free energy, 298 K” value (in CCOC(C)=O) was -11.1 kcal/mol and the “solvation free energy, 298 K” value (in CN1CCCC1=O) was -11.5 kcal/mol. The “solvation free energy, 298 K” value (in CO) was -9.88 kcal/mol, the “solvation free energy, 298 K” value (in COC(C)(C)C) was -10.7 kcal/mol and the “solvation free energy, 298 K” value (in COC(C)=O) was -11.1 kcal/mol. For the same molecule, the “solvation free energy, 298 K” value (in ClC(Cl)(Cl)Cl) was -11 kcal/mol, the “solvation free energy, 298 K” value (in O) was -3.8 kcal/mol and the “solvation free energy, 298 K” value (in O=C1CCCCC1) was -11.4 kcal/mol.

In the case of `c1ccc2c(c1)[nH]c1ccccc12`, the “solvation free energy, 298 K” value (in CC(=O)N(C)C) is reported as -14 kcal/mol, the “solvation free energy, 298 K” value (in CN1CCCC1=O) is reported as -14.5 kcal/mol and the “solvation free energy, 298 K” value (in O) is reported as -7.18 kcal/mol.

In the case of `O=C(c1ccccc1)C(O)c1ccccc1` (centres undefined), the “solvation free energy, 298 K” value (in C1COCCO1) is reported as -16.5 kcal/mol, the “solvation free energy, 298 K” value (in CC(C)(C)O) is reported as -14.6 kcal/mol and the “solvation free energy, 298 K” value (in CC(C)CCO) is reported as -14.6 kcal/mol. The “solvation free energy, 298 K” value (in CC(C)CO) was -14.6 kcal/mol, the “solvation free energy, 298 K” value (in CC(C)O) was -14.6 kcal/mol and the “solvation free energy, 298 K” value (in CCC(C)O) was -14.6 kcal/mol. For the same molecule, the “solvation free energy, 298 K” value (in CCCC(C)O) was -14.5 kcal/mol, the “solvation free energy, 298 K” value (in CCCCCCCCCCO) was -14.5 kcal/mol and the “solvation free energy, 298 K” value (in CCCCCCCCO) was -14.6 kcal/mol. The “solvation free energy, 298 K” value (in CCCCCCCO) was -14.6 kcal/mol, the “solvation free energy, 298 K” value (in CCCCCCO) was -14.6 kcal/mol and the “solvation free energy, 298 K” value (in CCCCCO) was -14.7 kcal/mol. For the same molecule, the “solvation free energy, 298 K” value (in CCCCO) was -14.7 kcal/mol, the “solvation free energy, 298 K” value (in CCCCOC(C)=O) was -15.4 kcal/mol and the “solvation free energy, 298 K” value (in CCCCOCCCC) was -14.2 kcal/mol. For the same molecule, the “solvation free energy, 298 K” value (in CCCO) was -14.9 kcal/mol, the “solvation free energy, 298 K” value (in CCO) was -15 kcal/mol and the “solvation free energy, 298 K” value (in CCOC(C)=O) was -15.7 kcal/mol. For the same molecule, the “solvation free energy, 298 K” value (in CCc1ccccc1) was -14.9 kcal/mol, the “solvation free energy, 298 K” value (in COC(C)(C)C) was -14.8 kcal/mol and the “solvation free energy, 298 K” value (in COC(C)=O) was -15.9 kcal/mol. For the same molecule, the “solvation free energy, 298 K” value (in Cc1ccc(C)cc1) was -15 kcal/mol, the “solvation free energy, 298 K” value (in Cc1ccccc1) was -15.2 kcal/mol and the “solvation free energy, 298 K” value (in Cc1ccccc1C) was -15.1 kcal/mol. For the same molecule, the “solvation free energy, 298 K” value (in ClC(Cl)(Cl)Cl) was -14.4 kcal/mol, the “solvation free energy, 298 K” value (in ClC(Cl)Cl) was -16.2 kcal/mol and the “solvation free energy, 298 K” value (in ClCCCl) was -16.1 kcal/mol. The “solvation free energy, 298 K” value (in O) was -11.9 kcal/mol and the “solvation free energy, 298 K” value (in c1ccccc1) was -15.6 kcal/mol.

With `CCCCCCCCN` the “solvation free energy, 298 K” value (in CCCCCCC) was -6.96 kcal/mol and the “solvation free energy, 298 K” value (in O) was -3.73 kcal/mol.

For `FC(F)(Cl)C(F)(Cl)Cl`, the “solvation free energy, 298 K” value (in C1CCOC1) was -3.37 kcal/mol, the “solvation free energy, 298 K” value (in CC(C)=O) was -3.31 kcal/mol and the “solvation free energy, 298 K” value (in CCC(C)=O) was -3.36 kcal/mol. For the same molecule, the “solvation free energy, 298 K” value (in CCOC(C)=O) was -3.4 kcal/mol, the “solvation free energy, 298 K” value (in COC(C)(C)C) was -3.62 kcal/mol and the “solvation free energy, 298 K” value (in COC(C)=O) was -3.38 kcal/mol. For the same molecule, the “solvation free energy, 298 K” value (in Cc1cccc(C)c1) was -3.37 kcal/mol, the “solvation free energy, 298 K” value (in ClC(Cl)(Cl)Cl) was -3.27 kcal/mol and the “solvation free energy, 298 K” value (in ClC(Cl)Cl) was -3.46 kcal/mol. For the same molecule, the “solvation free energy, 298 K” value (in ClCCCl) was -2.8 kcal/mol and the “solvation free energy, 298 K” value (in O) was 1.77 kcal/mol.

With `ClC(Cl)C(Cl)(Cl)Cl` the “solvation free energy, 298 K” value (in O) was -1.31 kcal/mol.

In the case of `O=[O+][O-]`, the “solvation free energy, 298 K” value (in COC(C)=O) is reported as -0.29 kcal/mol and the “solvation free energy, 298 K” value (in O) is reported as 0.82 kcal/mol.

For `CCCCOCC`, the “solvation free energy, 298 K” value (in CC(C)CCl) was -4.73 kcal/mol, the “solvation free energy, 298 K” value (in CCC(C)Cl) was -4.73 kcal/mol and the “solvation free energy, 298 K” value (in CCCCCl) was -4.77 kcal/mol. For the same molecule, the “solvation free energy, 298 K” value (in ClC(Cl)(Cl)Cl) was -4.91 kcal/mol.

With `CC(C)CC(=O)CC(=O)CC(C)C` the “solvation free energy, 298 K” value (in O) was -4.42 kcal/mol.

In the case of `C=CC#N`, the “solvation free energy, 298 K” value (in O) is reported as -3.34 kcal/mol.

For `COC(=O)c1ccc(I)cc1`, the “solvation free energy, 298 K” value (in CN(C)C=O) was -10.7 kcal/mol and the “solvation free energy, 298 K” value (in O) was -5.09 kcal/mol.

With `O=C(c1ccccc1[N+](=O)[O-])N(O)c1ccccc1` the “solvation free energy, 298 K” value (in O) was -14.5 kcal/mol.

For `CCCOCCO`, the “solvation free energy, 298 K” value (in O) was -6.4 kcal/mol.

With `CCCCCCCl` the “solvation free energy, 298 K” value (in O) was 0 kcal/mol.

For `O=[N+]([O-])c1ccc(Cl)cc1`, the “solvation free energy, 298 K” value (in O) was -5.05 kcal/mol.

In the case of `c1ccc(CCc2ccccc2)cc1`, the “solvation free energy, 298 K” value (in CCCCCCCCO) is reported as -8.8 kcal/mol.
